From ChEMBL document CHEMBL2396574, “Design, synthesis and evaluation of retinoids with novel bulky hydrophobic partial structures” (Bioorg Med Chem, 2013)
The source made the active and inactive calls. The calls are words filed in the database; no cut-off is given here.

Each molecule was assayed on HL-60 (assay: Induction of human HL60 cell differentiation into myeloid cells at 100 nM after 4 days by NBT reduction assay relative to control). Conditions: not given.
Type: functional

SMILES | Activity
O=C(O)c1ccc(C(=O)Nc2cc3c4c(c2)CCCC4CCC3)cc1 | 18%
O=C(O)c1ccc(C(=O)Nc2cc3cc(c2)CCCCCCCCCC3)cc1 | 37%
O=C(O)c1ccc(NC(=O)c2cc3c4c(c2)CCCC4CCC3)cc1 | 38%
O=C(O)c1ccc(C(=O)Nc2cc3c4c(c2)CCCC4CCC3)nc1 | 5%
CC12CCCc3cc(C(=O)Nc4ccc(C(=O)O)c(F)c4)cc(c31)CCC2 | 29%
O=C(Nc1ccc(C(=O)O)c(O)c1)c1cc2c3c(c1)CCCCC3CCCC2 | 41%
CC12CCCc3cc(NC(=O)c4ccc(C(=O)O)cn4)cc(c31)CCC2 | 16%

These molecules were tested against T1, Retinoic acid receptor beta (Homo sapiens) (UniProt P10826) (assay: Transactivation of Gal4-fused RARbeta (unknown origin) expressed in African green monkey COS1 cells at 100 nM by luciferase reporter gene assay relative to DMSO-treated control). Conditions: COS-1.
T1 sequence (whole entry): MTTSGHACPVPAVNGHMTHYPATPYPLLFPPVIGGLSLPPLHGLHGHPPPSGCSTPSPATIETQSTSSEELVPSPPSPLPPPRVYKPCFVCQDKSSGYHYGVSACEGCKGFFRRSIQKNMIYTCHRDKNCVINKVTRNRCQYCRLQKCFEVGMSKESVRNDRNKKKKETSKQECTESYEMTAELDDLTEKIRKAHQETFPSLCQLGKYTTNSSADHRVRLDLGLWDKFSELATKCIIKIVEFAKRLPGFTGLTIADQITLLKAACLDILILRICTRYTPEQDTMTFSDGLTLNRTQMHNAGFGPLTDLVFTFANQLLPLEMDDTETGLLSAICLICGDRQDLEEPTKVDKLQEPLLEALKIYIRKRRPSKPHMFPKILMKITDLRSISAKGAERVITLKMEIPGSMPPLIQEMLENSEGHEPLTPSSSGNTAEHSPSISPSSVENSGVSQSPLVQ
Type: cell-based

SMILES | fold change (FC)
O=C(O)c1ccc(C(=O)Nc2cc3cc(c2)CCCCCCCCCC3)cc1 | 8
O=C(O)c1ccc(NC(=O)c2cc3c4c(c2)CCCC4CCC3)cc1 | 18
CC12CCCc3cc(C(=O)Nc4ccc(C(=O)O)c(F)c4)cc(c31)CCC2 | 13
O=C(Nc1ccc(C(=O)O)c(O)c1)c1cc2c3c(c1)CCCCC3CCCC2 | 11

Continued, values first:

fold change (FC) | SMILES
5 | O=C(O)c1ccc(C(=O)Nc2cc3c4c(c2)CCCC4CCC3)cc1
16 | O=C(O)c1ccc(C(=O)Nc2cc3c4c(c2)CCCC4CCC3)nc1
26 | CC12CCCc3cc(NC(=O)c4ccc(C(=O)O)cn4)cc(c31)CCC2

These molecules were tested against T2, Retinoic acid receptor RXR-beta (Homo sapiens) (UniProt P28702) (assay: Transactivation of full-length RXRbeta (unknown origin) expressed in African green monkey COS1 cells at 1000 nM by luciferase reporter gene assay). Conditions: COS-1.
T2 sequence (whole entry): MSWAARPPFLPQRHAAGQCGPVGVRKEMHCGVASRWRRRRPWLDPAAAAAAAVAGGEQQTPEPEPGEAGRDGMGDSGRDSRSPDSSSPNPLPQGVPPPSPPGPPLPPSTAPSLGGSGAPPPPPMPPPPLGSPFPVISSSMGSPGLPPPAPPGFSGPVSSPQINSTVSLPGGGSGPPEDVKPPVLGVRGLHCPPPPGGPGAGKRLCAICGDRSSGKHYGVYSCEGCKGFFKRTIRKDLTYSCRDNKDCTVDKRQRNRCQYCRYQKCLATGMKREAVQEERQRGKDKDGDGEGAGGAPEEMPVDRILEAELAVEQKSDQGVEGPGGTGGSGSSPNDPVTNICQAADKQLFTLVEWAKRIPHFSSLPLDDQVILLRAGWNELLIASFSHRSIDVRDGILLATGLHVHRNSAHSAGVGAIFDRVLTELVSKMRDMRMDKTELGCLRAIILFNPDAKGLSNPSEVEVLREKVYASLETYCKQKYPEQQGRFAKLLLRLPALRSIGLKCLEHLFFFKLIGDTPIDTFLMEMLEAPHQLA
Type: cell-based

SMILES | Activity
O=C(O)c1ccc(C(=O)Nc2cc3cc(c2)CCCCCCCCCC3)cc1 | inactive
O=C(O)c1ccc(NC(=O)c2cc3c4c(c2)CCCC4CCC3)cc1 | inactive
CC12CCCc3cc(C(=O)Nc4ccc(C(=O)O)c(F)c4)cc(c31)CCC2 | inactive
O=C(Nc1ccc(C(=O)O)c(O)c1)c1cc2c3c(c1)CCCCC3CCCC2 | inactive

Further lines, results first:

Activity | SMILES
inactive | O=C(O)c1ccc(C(=O)Nc2cc3c4c(c2)CCCC4CCC3)cc1
inactive | O=C(O)c1ccc(C(=O)Nc2cc3c4c(c2)CCCC4CCC3)nc1
inactive | CC12CCCc3cc(NC(=O)c4ccc(C(=O)O)cn4)cc(c31)CCC2

What follows are molecules tested on HL-60 (assay: Induction of human HL60 cell differentiation into myeloid cells at 10 nM after 4 days by NBT reduction assay relative to control). Conditions: not given.
Type: functional

SMILES | Activity
O=C(O)c1ccc(C(=O)Nc2cc3c4c(c2)CCCC4CCC3)cc1 | 7%
O=C(O)c1ccc(C(=O)Nc2cc3cc(c2)CCCCCCCCCC3)cc1 | 16%
O=C(O)c1ccc(NC(=O)c2cc3c4c(c2)CCCC4CCC3)cc1 | 27%
O=C(O)c1ccc(C(=O)Nc2cc3c4c(c2)CCCC4CCC3)nc1 | 2%
CC12CCCc3cc(C(=O)Nc4ccc(C(=O)O)c(F)c4)cc(c31)CCC2 | 18%
O=C(Nc1ccc(C(=O)O)c(O)c1)c1cc2c3c(c1)CCCCC3CCCC2 | 29%
CC12CCCc3cc(NC(=O)c4ccc(C(=O)O)cn4)cc(c31)CCC2 | 5%

The molecules below were run against T3, Retinoic acid receptor RXR-gamma (Homo sapiens) (UniProt P48443) (assay: Transactivation of full-length RXRgamma (unknown origin) expressed in African green monkey COS1 cells at 1000 nM by luciferase reporter gene assay). Conditions: COS-1.
T3 sequence (whole entry): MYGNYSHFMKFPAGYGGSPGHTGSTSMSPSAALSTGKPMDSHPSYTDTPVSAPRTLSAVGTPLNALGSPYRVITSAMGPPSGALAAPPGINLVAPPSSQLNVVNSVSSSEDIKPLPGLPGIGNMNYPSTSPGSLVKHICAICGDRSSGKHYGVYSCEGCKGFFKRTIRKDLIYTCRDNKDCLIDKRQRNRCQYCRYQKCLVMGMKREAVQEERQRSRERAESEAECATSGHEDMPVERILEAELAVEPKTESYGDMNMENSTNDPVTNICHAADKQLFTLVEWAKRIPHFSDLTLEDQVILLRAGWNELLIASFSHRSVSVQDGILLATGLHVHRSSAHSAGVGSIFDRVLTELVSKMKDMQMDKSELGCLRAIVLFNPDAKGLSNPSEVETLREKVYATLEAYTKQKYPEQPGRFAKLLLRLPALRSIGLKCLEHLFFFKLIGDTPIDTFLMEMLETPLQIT
Type: cell-based

SMILES | Activity
O=C(O)c1ccc(C(=O)Nc2cc3cc(c2)CCCCCCCCCC3)cc1 | inactive
O=C(O)c1ccc(NC(=O)c2cc3c4c(c2)CCCC4CCC3)cc1 | inactive
CC12CCCc3cc(C(=O)Nc4ccc(C(=O)O)c(F)c4)cc(c31)CCC2 | inactive
O=C(Nc1ccc(C(=O)O)c(O)c1)c1cc2c3c(c1)CCCCC3CCCC2 | inactive

Next, values leading:

Activity | SMILES
inactive | O=C(O)c1ccc(C(=O)Nc2cc3c4c(c2)CCCC4CCC3)cc1
inactive | O=C(O)c1ccc(C(=O)Nc2cc3c4c(c2)CCCC4CCC3)nc1
inactive | CC12CCCc3cc(NC(=O)c4ccc(C(=O)O)cn4)cc(c31)CCC2

Each molecule was assayed against T4, Retinoic acid receptor gamma (Homo sapiens) (UniProt P13631) (assay: Transactivation of Gal4-fused RARgamma (unknown origin) expressed in African green monkey COS1 cells at 100 nM by luciferase reporter gene assay relative to DMSO-treated control). Conditions: COS-1.
T4 sequence (whole entry): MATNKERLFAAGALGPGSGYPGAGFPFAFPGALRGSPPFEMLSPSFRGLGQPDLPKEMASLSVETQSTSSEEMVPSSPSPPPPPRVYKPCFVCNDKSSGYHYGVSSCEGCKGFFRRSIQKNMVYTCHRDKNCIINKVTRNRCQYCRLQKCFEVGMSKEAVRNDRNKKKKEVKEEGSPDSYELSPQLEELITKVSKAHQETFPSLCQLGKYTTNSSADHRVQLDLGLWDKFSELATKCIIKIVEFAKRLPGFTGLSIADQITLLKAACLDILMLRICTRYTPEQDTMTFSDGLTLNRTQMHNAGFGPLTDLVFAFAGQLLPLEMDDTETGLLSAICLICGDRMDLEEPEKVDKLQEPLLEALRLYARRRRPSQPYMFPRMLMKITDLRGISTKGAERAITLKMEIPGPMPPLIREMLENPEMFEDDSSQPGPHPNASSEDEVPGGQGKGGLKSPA
Type: cell-based

SMILES | fold change (FC)
O=C(O)c1ccc(C(=O)Nc2cc3cc(c2)CCCCCCCCCC3)cc1 | 1
O=C(O)c1ccc(NC(=O)c2cc3c4c(c2)CCCC4CCC3)cc1 | 3
CC12CCCc3cc(C(=O)Nc4ccc(C(=O)O)c(F)c4)cc(c31)CCC2 | 2
O=C(Nc1ccc(C(=O)O)c(O)c1)c1cc2c3c(c1)CCCCC3CCCC2 | 2

The remaining lines, values ahead:

fold change (FC) | SMILES
1 | O=C(O)c1ccc(C(=O)Nc2cc3c4c(c2)CCCC4CCC3)cc1
7 | O=C(O)c1ccc(C(=O)Nc2cc3c4c(c2)CCCC4CCC3)nc1
2 | CC12CCCc3cc(NC(=O)c4ccc(C(=O)O)cn4)cc(c31)CCC2
